Data reported in patent US6410685B1, “Antistress agents and functional foods” (Calpis Co., Ltd., priority 1997, dated 2002).
Marks after values point to notes of the source that are not given here.

System: Wister rats exposed to cold stress
Test: Blood pressure by tail-cuff method in rats exposed to cold stress
Format: in vivo, rat
Settings: Example 5, day 10, 3 mg/kg body weight of single tripeptide oral
Text: 24 male Wister rats (body weight about 300 g) were preliminarily fed for one week. During the preliminary feeding period and the experimental period, the rats were restrictively fed with commercial diet (trade name “CE-2” manufactured by NIHON CREA CO.), and allowed to take water ad libitum.
After the preliminary feeding period, the rats were divided into three groups (eight rats each), namely, (1) the group not exposed to stress and given saline, (2) the group exposed to stress and given saline, and (3) the group exposed to stress, and given VPP and IPP. The animals of groups (2) and (3) were exposed to stress for 9 days by putting them in a cold room (4° C.) for 4 hours per one day.
On the day 10, rats of groups (1) and (2) were given 1 ml of saline, and rats of group (3) were given 1 ml of saline containing 3 mg/kg body weight each of IPP and VPP synthesized in Example 3, by forcible administration into stomach via an oral sonde. After the administration, the rats of groups (2) and (3) were exposed to cold stress for 4 hours. Two hours after finishing the stress loading, blood pressure of the rats in each group was measured by tail-cuff method using a non-warming, non-invasive rat sphygmomanometer (Type PE-300, manufactured by CSI CO.).
After the preliminary feeding period, the rats were divided into three groups (eight rats each), namely, (1) the group given saline, (2) the group given VPP, and (3) the group given IPP. The rats of groups (1) to (3) were exposed to stress for 9 days by, as in Example 4, putting them in a cold room (4° C.) for 4 hours per one day.
On the day 10, rats of group (1) were given 1 ml of saline, and rats of group (2) and (3) were given 1 ml of saline containing 3 mg/kg body weight of IPP or 3 mg/kg body weight of VPP, respectively, synthesized in Example 3, by forcible administration into stomach via an oral sonde. After the administration, the rats of groups (1) to (3) were exposed to cold stress for 4 hours, and blood pressure was measured as in Example 4.
The test was carried out in the same way as in Example 5 except that the group (1) rats were given 2 ml of saline, and the rats in group (2) were given 5 ml/kg body weight of the fermented milk obtained in Example 1, and the rats in group (3) were given 2 ml of saline containing 150 mg/kg of the purified tripeptide fraction powders obtained in Example 2, respectively. After the administration of the samples and exposure to stress, the blood pressure of each rat was measured.

Row | Substance | Diastolic Blood Pressure | Systolic Blood Pressure
1 | Ile-Pro-Pro [IPP] | 102* mmHg | 130* mmHg
2 | Val-Pro-Pro [VPP] | 101* mmHg | 131* mmHg
